Reference: ChEMBL document CHEMBL1126234, “Rigid analogs of acetylcholine can be m1-selective agonists: implications for a rational treatment strategy in Alzheimer's disease” (Bioorg Med Chem Lett, 1992)
Positions count from the first letter of the chain named.

What was measured:
Type in all cases: functional, cell-based
[1] = biological target: T1, Muscarinic acetylcholine receptor M1 (Homo sapiens) (UniProt P11229); assay: Percent increase in forskolin-stimulated cAMP accumulation using CHO cells, stably transfected with human muscarinic m1 acetylcholine receptor (AChR)
T1 sequence (whole entry): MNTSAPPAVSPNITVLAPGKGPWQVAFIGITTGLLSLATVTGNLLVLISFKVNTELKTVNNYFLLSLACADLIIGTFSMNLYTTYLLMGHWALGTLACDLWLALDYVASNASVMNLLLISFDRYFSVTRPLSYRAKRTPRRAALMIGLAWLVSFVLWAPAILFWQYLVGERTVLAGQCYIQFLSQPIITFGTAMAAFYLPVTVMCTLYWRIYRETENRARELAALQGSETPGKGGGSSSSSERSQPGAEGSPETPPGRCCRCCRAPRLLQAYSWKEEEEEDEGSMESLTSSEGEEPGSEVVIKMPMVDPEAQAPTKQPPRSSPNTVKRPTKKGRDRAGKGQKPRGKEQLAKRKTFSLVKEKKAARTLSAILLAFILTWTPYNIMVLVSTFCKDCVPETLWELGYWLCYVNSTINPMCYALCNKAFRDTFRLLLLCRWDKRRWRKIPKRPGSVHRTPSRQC

[2] = biological target: T1, Muscarinic acetylcholine receptor M1 (Homo sapiens); assay: Percent increase in Arachidonic acid (AA) release using CHO cells, transfected with human muscarinic m1 acetylcholine receptor (AChR)
[3] = biological target: T2, Muscarinic acetylcholine receptor M2 (Homo sapiens) (UniProt P08172); assay: Percent increase in forskolin-stimulated cAMP accumulation using CHO cells, transfected with human muscarinic m2 acetylcholine receptor (AChR)
T2 sequence (whole entry): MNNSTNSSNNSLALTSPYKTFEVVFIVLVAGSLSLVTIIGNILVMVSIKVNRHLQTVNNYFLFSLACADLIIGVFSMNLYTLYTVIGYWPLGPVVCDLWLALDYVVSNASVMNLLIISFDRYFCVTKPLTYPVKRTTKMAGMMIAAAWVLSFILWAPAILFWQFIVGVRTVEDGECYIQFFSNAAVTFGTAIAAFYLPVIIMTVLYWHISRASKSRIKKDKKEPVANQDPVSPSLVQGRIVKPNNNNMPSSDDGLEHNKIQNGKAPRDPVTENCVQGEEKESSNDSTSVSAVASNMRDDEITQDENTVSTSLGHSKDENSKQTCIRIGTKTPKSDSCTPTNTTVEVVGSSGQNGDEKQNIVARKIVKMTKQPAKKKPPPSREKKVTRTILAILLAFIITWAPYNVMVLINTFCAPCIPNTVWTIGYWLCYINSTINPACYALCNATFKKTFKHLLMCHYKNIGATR

[4] = biological target: Muscarinic acetylcholine receptor M3 (Homo sapiens) (UniProt P20309); assay: Percent increase in phosphoinositides (PI) hydrolysis using CHO cells, stably transfected with human muscarinic m3 acetylcholine receptor (AChR)
Muscarinic acetylcholine receptor M3 (Homo sapiens), sequence (P20309 whole entry, looked up): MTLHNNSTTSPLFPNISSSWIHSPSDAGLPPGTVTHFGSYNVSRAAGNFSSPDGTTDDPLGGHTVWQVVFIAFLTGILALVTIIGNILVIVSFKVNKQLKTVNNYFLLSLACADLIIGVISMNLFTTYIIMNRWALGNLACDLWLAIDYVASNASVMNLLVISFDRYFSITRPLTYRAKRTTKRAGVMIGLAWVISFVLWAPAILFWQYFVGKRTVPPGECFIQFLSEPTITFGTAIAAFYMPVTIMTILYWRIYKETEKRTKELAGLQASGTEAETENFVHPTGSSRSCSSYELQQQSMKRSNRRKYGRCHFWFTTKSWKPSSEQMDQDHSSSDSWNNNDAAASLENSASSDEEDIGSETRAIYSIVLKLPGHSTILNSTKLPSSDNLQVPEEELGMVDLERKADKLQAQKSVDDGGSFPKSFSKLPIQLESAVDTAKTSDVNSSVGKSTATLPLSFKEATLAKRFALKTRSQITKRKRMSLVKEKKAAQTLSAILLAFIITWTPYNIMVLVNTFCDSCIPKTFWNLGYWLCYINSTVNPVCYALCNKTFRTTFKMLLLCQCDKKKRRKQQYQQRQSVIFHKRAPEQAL

[5] = biological target: Muscarinic acetylcholine receptor M3 (Homo sapiens) (UniProt P20309); assay: Percent increase in intracellular calcium ion concentration ([Ca2+]i) using CHO cells, stably transfected with human muscarinic m3 acetylcholine receptor (AChR)
[6] = biological target: T1, Muscarinic acetylcholine receptor M1 (Homo sapiens); assay: Percent increase in intracellular calcium ions concentration ([Ca2+]i) using CHO cells, stably transfected with human muscarinic m1 acetylcholine receptor (AChR)
[7] = biological target: Muscarinic acetylcholine receptor M3 (Homo sapiens) (UniProt P20309); assay: Percent increase in forskolin-stimulated cAMP accumulation using CHO cells, stably transfected with human muscarinic m3 acetylcholine receptor (AChR)
[8] = biological target: T3, Muscarinic acetylcholine receptor M5 (Homo sapiens) (UniProt P08912); assay: Percent increase in phosphoinositides (PI) hydrolysis using CHO cells, stably transfected with human muscarinic m5 acetylcholine receptor (AChR)
T3 sequence (whole entry): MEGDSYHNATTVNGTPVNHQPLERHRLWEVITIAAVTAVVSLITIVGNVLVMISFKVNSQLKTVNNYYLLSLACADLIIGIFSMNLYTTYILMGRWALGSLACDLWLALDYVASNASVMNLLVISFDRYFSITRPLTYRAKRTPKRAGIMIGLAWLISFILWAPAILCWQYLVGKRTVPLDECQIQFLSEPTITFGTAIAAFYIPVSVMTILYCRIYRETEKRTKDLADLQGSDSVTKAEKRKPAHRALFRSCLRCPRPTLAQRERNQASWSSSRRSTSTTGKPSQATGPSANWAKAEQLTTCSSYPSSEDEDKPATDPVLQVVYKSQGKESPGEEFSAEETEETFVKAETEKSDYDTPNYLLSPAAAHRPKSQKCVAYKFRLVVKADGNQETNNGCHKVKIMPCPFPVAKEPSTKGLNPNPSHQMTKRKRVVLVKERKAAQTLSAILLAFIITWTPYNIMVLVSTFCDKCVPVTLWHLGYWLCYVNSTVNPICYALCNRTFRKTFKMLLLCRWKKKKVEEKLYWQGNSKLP

[9] = biological target: T3, Muscarinic acetylcholine receptor M5 (Homo sapiens); assay: Percent increase in Arachidonic acid (AA) release using CHO cells, stably transfected with human muscarinic m5 acetylcholine receptor (AChR)
[10] = biological target: T1, Muscarinic acetylcholine receptor M1 (Homo sapiens); assay: Percent increase in phosphoinositides (PI) hydrolysis using chinese hamster ovary (CHO) cells, stably transfected with human muscarinic m1 acetylcholine receptor (AChR)
[11] = biological target: Muscarinic acetylcholine receptor M3 (Homo sapiens) (UniProt P20309); assay: Percent increase in Arachidonic acid (AA) release using CHO cells, stably transfected with human muscarinic m3 acetylcholine receptor (AChR)
[12] = biological target: T2, Muscarinic acetylcholine receptor M2 (Homo sapiens); assay: Percent increase in intracellular calcium ions concentration ([Ca2+]i) using CHO cells, stably transfected with human muscarinic m2 acetylcholine receptor (AChR)
[13] = biological target: T4, Muscarinic acetylcholine receptor M4 (Homo sapiens) (UniProt P08173); assay: Percent increase in intracellular calcium ion concentration ([Ca2+]i) using CHO cells, stably transfected with human muscarinic m4 acetylcholine receptor (AChR)
T4 sequence (whole entry): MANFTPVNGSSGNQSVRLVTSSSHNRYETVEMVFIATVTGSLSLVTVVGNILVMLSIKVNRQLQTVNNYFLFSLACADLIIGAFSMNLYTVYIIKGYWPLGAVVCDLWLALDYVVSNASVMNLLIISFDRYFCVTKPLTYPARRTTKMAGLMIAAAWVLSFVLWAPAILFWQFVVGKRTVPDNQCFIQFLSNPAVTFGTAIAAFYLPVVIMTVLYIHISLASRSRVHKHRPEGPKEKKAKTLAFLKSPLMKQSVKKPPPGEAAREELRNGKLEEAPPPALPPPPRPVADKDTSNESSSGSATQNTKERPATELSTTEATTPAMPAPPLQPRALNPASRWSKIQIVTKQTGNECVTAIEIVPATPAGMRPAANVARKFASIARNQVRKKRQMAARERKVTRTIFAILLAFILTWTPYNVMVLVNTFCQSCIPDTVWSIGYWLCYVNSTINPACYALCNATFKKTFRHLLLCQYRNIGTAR

[14] = biological target: T3, Muscarinic acetylcholine receptor M5 (Homo sapiens); assay: Percent increase in intracellular calcium ions concentration ([Ca2+]i) using CHO cells, stably transfected with human muscarinic m5 acetylcholine receptor (AChR)
[15] = biological target: T5, Muscarinic acetylcholine receptor M1 (Rattus norvegicus) (UniProt P08482); assay: Percent increase in Arachidonic acid (AA) release using CHO cells, transfected with rat muscarinic m1 acetylcholine receptor (AChR)
T5 sequence (whole entry): T1 sequence (whole entry) with A5V, T254S, P309S, R320K, A337G, I413V

[16] = biological target: Muscarinic acetylcholine receptor M3 (Rattus norvegicus) (UniProt P08483); assay: Percent increase in Arachidonic acid (AA) release using CHO cells, stably transfected with rat muscarinic m3 acetylcholine receptor (AChR)
Muscarinic acetylcholine receptor M3 (Rattus norvegicus), sequence (P08483 whole entry, looked up): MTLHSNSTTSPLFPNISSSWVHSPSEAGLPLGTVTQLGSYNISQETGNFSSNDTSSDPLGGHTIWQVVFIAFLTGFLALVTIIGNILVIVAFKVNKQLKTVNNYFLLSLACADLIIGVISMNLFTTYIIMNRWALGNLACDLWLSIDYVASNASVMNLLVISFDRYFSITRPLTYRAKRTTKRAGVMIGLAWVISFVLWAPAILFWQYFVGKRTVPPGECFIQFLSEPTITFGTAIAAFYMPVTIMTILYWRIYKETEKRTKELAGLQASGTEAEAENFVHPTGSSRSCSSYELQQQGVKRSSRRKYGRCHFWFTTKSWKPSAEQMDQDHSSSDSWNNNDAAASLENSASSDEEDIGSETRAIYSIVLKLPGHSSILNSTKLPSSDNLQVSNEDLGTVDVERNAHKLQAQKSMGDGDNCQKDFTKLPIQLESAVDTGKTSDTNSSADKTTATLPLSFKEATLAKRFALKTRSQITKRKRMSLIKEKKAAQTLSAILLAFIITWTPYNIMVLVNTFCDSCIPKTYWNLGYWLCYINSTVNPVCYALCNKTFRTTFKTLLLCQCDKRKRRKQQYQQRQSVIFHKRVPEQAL

Row | Compound | Increase [1] [%] | Increase [2] [%] | Increase [3] [%] | Increase [4] [%] | Increase [5] [%] | Increase [6] [%] | Increase [7] [%] | Increase [8] [%] | Increase [9] [%] | Increase [10] [%] | Increase [11] [%] | Increase [12] [%] | Increase [13] [%] | Increase [14] [%] | Increase [15] [%] | Increase [16] [%]
1 | C[C@@H]1OC2(CS1)CN1CCC2CC1 (some centres undefined) | 1 | 68 | 60 | 10 | 86 | 79 | 0.8 | 4 | 4 | 43 | 11 | 17 | 3 | 32 |  | 
2 | CC1=NC2(CCN(C)CC2)CO1 |  | 3 | 70 | 84 | 132 | 85 | 4 | 79 |  | 102 |  | 9 | 10 | 80 | 61 | 36
3 | CC1=NCC2(CCN(C)CC2)O1 | 6 |  | 74 | 76 | 130 | 60 | 10 | 28 |  | 85 |  | 12 | 10 | 78 | 90 | 27
4 | C[N+](C)(C)CC#CCOC(=O)Nc1cccc(Cl)c1 | 7 | 90 | 9.5 | 7 |  |  | 7 | 24 | 34 | 89 | 13 |  |  |  |  | 
